“Also recorded” adds a separate entry of the source.
Experiments:
[1] = test system: murine Wnt1 and human Wnt2; experiment: Wnt antagonistic activity, LEF-luciferase reporter assay with mixed Inducer and Reporter 293T cells; assay type: cell-based
Method: 293T cells expressing murine Wnt1 and human Wnt2 (Inducer Cells) and 293T cells expressing Luciferase under the control of LEF-site-linked promoter (Reporter Cells) were mixed at an equal ratio and seeded in 100 μl medium per well in a 96-well microtiter plate. The Inducer Cells by overexpressing Wnt1 and Wnt2 at its surface were able to induce an activation of the Wnt signaling pathway triggered by the interaction of the Wnt proteins with its receptor at the cell membrane of the Reporter Cells. The Reporter Cells in response to Wnt pathway activation expressed luciferase by the activation of Wnt responsive genes such as LEF.
The mixture was composed of about 10,000 Inducer Cells and 10,000 Reporter Cells per well. SARP-1(Fz)delta7-Fc was added to the culture medium at different concentrations (from 300 to 5 μg/ml). After 48 hours of incubation, the medium was discarded, and 40 μl lysis buffer were added to the cells. After 15 minutes of lysis on an orbital shaker at 4° C., the samples were submitted to two cycles of freezing and thawing followed by rigid shaking using a vortex (for 2 minutes) and sedimentation by centrifugation at 2000 rpm in V-shape microtiter plates.
Luciferase activities were normalized by total protein content in the lysate. Protein quantification was performed on 5 μl cell lysate using the BCA kit (Pierce) as known in the art. To measure the luciferase activity, 10 μl of cell lysate each was transferred into a 96-well microtiter plate. 15 μl of luciferin reagent was added to the sample and the quantification of the luminescence was counted during 10 seconds.
The results were expressed in percentage of Wnt activation. Thus, the maximal luciferase activity obtained with the mixture of Inducer and Reporter Cells corresponded to 100%.

[2] = test system: human hepatic stellate cells; experiment: Cell proliferation assay (cell number/well) of PDGF-BB-stimulated primary human hepatic stellate cells; assay type: cell-based
Method: (§1) Human hepatic stellate cells (HSCs) were isolated from wedge sections of normal human liver unsuitable for transplantation. Liver tissue was digested with collagenase/pronase. HSC were separated from other liver nonparenchymal cells by ultracentrifugation over gradients of Stractan (Cellsep isotonic solution; Larex Inc., St. Paul, Minn.). HSC were cultured on plastic culture dishes in Iscove's modified Dulbecco's medium supplemented with 0.6 U/mL of insulin, 2.0 mmol/L of glutamine, 0.1 mmol/L of nonessential amino acids, 1.0 mmol/L of sodium pyruvate, antibiotic-antimycotic solution (all provided by Gibco Laboratories, Grand Island, N.Y.), and 20% fetal bovine serum (Imperial Laboratories, Andover, UK). All experiments were performed in triplicate and results are expressed as MEAN+SD. Statistical significance was evaluated by Student t test.
(§2) For this group of experiments the stimulus of choice was human recombinant PDGF-BB at the standard dose of 10 ng/ml. Canrenone (10 μM), whose inhibitory effect has been previously shown in the same cell preparations (Caligiuri et al., 2003), was used as a positive control of inhibition.
HSC were plated in 12 well dishes at 30% confluence in Iscove's modified Dulbecco's medium supplemented with 0.6 U/mL insulin, 2.0 mmol/L of glutamine, 0.1 mmol/L nonessential amino acids, 1.0 mmol/L of sodium pyruvate, antibiotic-antimycotic solution (all from Gibco Laboratories, Grand Island, N.Y.), and 20% fetal bovine serum (Imperial Laboratories, Andover, UK). After 24 hours the HSC were incubated with serum-free medium containing PDGF-BB to induce activation at a concentration of 10 ng/ml with or without SARP-1(Fz)delta7-Fc at a concentration of 10, 1 and 0.1 μg/ml. HSC were harvested and cell number/well were determined after 2, 4, and 6 days of culture. At each time point fresh medium and experimental conditions were added at the remaining wells.

[3] = test system: human hepatic stellate cells; experiment: Incorporation of 3H-thymidine into DNA of PDGF-BB-stimulated primary human hepatic stellate cells; assay type: cell-based; conditions: PDGF-BB 10 ng/ml; 10, 1 and 0.1 μg/ml
Method: as §1, §2
HSC were plated in 24 well plastic dishes and grown to confluence in complete cell culture medium containing 20% of fetal bovine serum (FBS). HSC were then deprived of serum for 48 hours and stimulated with PDGF-BB for additional 24 hours. […]

[4] = test system: B16F1 (mouse melanoma) cell line; experiment: MTT cell proliferation assay, B16F1; assay type: cell-based
Method: (§3) The cell line B16F1 (mouse melanoma) were cultivated in DMEM+10% serum and seeded at 5000 cells/well in a total volume of 50 μl. The SW480 and SW620 (human colon carcinoma) cell lines were cultivated in L15 medium+10% fetal bovine serum and seeded at 20,000 cells per well in a total volume of 50 μl. SARP-1(Fz)delta7-Fc was added immediately at a concentration of 1, 3 or 6 μM.
(§4) Cell proliferation assay was evaluated by reduction of 3-(4,5-dimethylthiazol-2-yl)-2,5-diphenyltetrazolium bromide (MTT) after 24, 48, 72 and 96 hours of culture. For the test of cell proliferation, 5 μl and 10 μl of MTT solution were added to the cultures of B16F1, SW480 and SW620 cells, respectively. After the incubation period, cells were lysed in 200 μl DMSO, and optic density was determined at 570 and 630 nm. The positive control for inhibition of cell proliferation was DKK1-Fc used at a concentration of 1 μM during the experiment.

[5] = test system: SW480 (human colon carcinoma) cell line; experiment: MTT cell proliferation assay, SW480; assay type: cell-based; conditions: 1, 3 or 6 μM; MTT after 24, 48, 72 and 96 hours
Method: as §3, §4

[6] = test system: SW620 (human colon carcinoma) cell line; experiment: MTT cell proliferation assay, SW620; assay type: cell-based; conditions: 1, 3 or 6 μM; MTT after 24, 48, 72 and 96 hours
Method: as §3, §4

[7] = test system: unilateral ureter ligation-induced renal fibrosis; experiment: Unilateral ureter obstruction (UUO) murine model of renal fibrosis; assay type: in vivo, C57BL/6 mice; conditions: subcutaneous, 1.5 mg/ml, once a day, 21 days of treatment; p<0.05
Method: The in vivo activity of SARP-1(Fz)[…]-Fc was tested in an experimental model of obstructive nephropathy, which is unilateral ureter ligation-induced renal fibrosis (Vielhauer et al., 2001). Female inbred C57BL/6 mice weighing 20 to 26 g were kept in macrolone type III cages under a 12 h light/dark cycle. Water and standard chow were available ad libitum. Under general ether anesthesia, a low midline abdominal incision was performed and the ligation of the left distal ureter was made with a 2/0 Mersilene suture, resulting in a unilateral ureter obstruction (UUO). Unobstructed contralateral kidneys served as controls. […] The first dose was administered immediately after UUO once a day for 21 days Mice were killed at 7 and 21 days after UUO by cervical dislocation under general anesthesia with inhaled ether. From each mouse cranial kidney halves were used for histological assessment. Ligated and contralateral kidney tissue was fixed for 24 hours at room temperature in 4% neutral buffered formalin and then embedded in paraffin. For quantitative analysis, 4 μm horizontal sections were cut. Every fifth of fifteen subsequent sections, chosen by systematic uniformly random sampling, was used for analysis. […]

[8] = test system: lung fibroblasts of patients with interstitial pulmonary fibrosis (IPF); experiment: BrdU incorporation (cell proliferation ELISA) in primary lung fibroblasts from IPF patients; assay type: cell-based, human; conditions: for PDGF-increased BrdU incorporation: PDGF 10 ng/ml
Method: To evaluate the effect of SARP-1(Fz)delta7-Fc, lung fibroblasts were obtained from lung explants of patients with interstitial pulmonary fibrosis (IPF) (N=3) and controls (N=3). Fibroblasts were cultured in 96 well cell culture plates in DMEM medium with high glucose (25 mM) and 10% Fetal Clone II (Hyclone) until they reached approximately 50% confluence. Fetal Clone II is an alternative to fetal bovine serum (FBS). Then the cells were cultured for 48 hours with Fetal Clone II at a concentration of 1%. […] Bromodeoxyuridine (5-bromo-2-deoxyuridine, BrdU) was added 24 hours later at a final concentration of 100 μM. After 24 hours of incubation, cells were fixed and lysed. Cell proliferation was evaluated with the cell proliferation ELISA BrdU colorimetric assay (Roche Diagnostics, Meylan, France) ELISA. The experiments were performed in the basal condition (without PDGF) and in the presence of PDGF (10 ng/ml), All experimental conditions were tested in triplicates and the mean value was calculated. For each experimental condition, the incorporation of BrdU was expressed as a percentage of the incorporation observed in the control condition in the same culture.

## SARP-1(Fz)delta7-Fc: Fusion of mature SARP-1 without Netrin domain, lacking first seven N-terminal amino acids, with human IgG1 Fc region
[1]; 48 hours incubation, 300 to 5 μg/ml, read-out: IC50, reduction of luciferase activity
  IC50: 750 nM
[1]; FIG. 3 legend
  Emax reached, inhibition of Wnt 1 and Wnt 2 activation: 80%
[1]; FIG. 3 legend, read-out: EC50, inhibition of Wnt 1 and Wnt 2 activation in a reporter cellular assay
  EC50: 750 nM
[1]; at concentration from 150 to 300 μg/ml
  maximum inhibition of luciferase activity: 80%
[2]; 10.0 μg/ml after 2, 4 and 6 days of culture
  inhibitory effect on PDGF-induced hepatic stellate cells: more prominent
[2]; 10.0 μg/ml for 2, 4 or 6, PDGF-BB 10 ng/ml
  PDGF-induced cell growth of hepatic stellate cells: significantly decreased
[2]; dose of 1 μg/ml after 2 days of culture
  inhibitory effect on PDGF-induced hepatic stellate cells: statistically significant
[3]
  PDGF-induced DNA synthesis in primary human hepatic stellate cells cultures: reduced significantly
[4]; 6 μM
  level of inhibition of B16F1 proliferation compared with positive control DKK1-Fc (1 μM): comparable to the one obtained by using the positive control
[4]; 1 to 6 μM, MTT after 24, 48, 72 and 96 hours
  inhibition of proliferation of B16F1 melanoma cell line: significant inhibition; also recorded: inhibited cell proliferation
[5]
  inhibition of cell proliferation of SW480: able to inhibit the cell proliferation; also recorded: inhibited cell proliferation
[6]
  inhibition of cell proliferation of SW620: able to inhibit the cell proliferation; also recorded: inhibited cell proliferation
[7]
  alfa smooth muscle actin (α-SMA) accumulation, myofibroblast marker, histological analysis: reduction; also recorded: decreased
  renal fibrosis by morphometric analysis of the changes in the tubular interstitium: reduction of renal fibrosis
[8]; 1 μg/ml
  PDGF-increased BrdU incorporation: no effect
[8]; 10 μg/ml
  PDGF-increased BrdU incorporation: no effect
[8]; 100 μg/ml
  PDGF-increased BrdU incorporation: profoundly inhibited
[8]; concentration not given
  PDGF-increased BrdU incorporation: reduced BrdU incorporation
[8]; without PDGF, in b213 at the highest dose tested
  BrdU incorporation, basal condition: reduced BrdU incorporation

From US20100260785A1, “SARP-1 Fusion Proteins and Uses Thereof” (priority 2007, published 2010)
